# Data: EP0556720B1, “5-Aminoflavone derivatives” (KYOWA HAKKO KOGYO CO., LTD., priority 1992, dated 1993)
# Legend:
# HeLaS3 cells = test: Human uterine cervix carcinoma (HeLaS3) growth inhibition test, neutral red staining; format: cell-based; details: HeLa S3, 72 hours culture with sample, absorbance at 550 nm
# Method: Human uterine cervix carcinoma (HeLaS3) growth inhibition test;
# Each 0.1 ml of HeLaS3 cells which had been prepared to 3 x 10^4/ml using a medium (referred to as Medium A hereinafter) consisted of MEM medium, 2 mM glutamine and 10% bovine fetal serum was distributed in each well of 96 well-microtiter plate. The plate was cultured at 37 °C for 20 hours in a CO2 gas incubator, each 0.05 ml of samples (test compounds) which had been appropriately diluted with Medium A was added thereto and the mixture was cultured at 37 °C for 72 hours in a CO2 gas incubator. Supernatant was removed, each 0.1 ml of Medium A containing 0.02% neutral red was added to the residue, the mixture was cultured at 37 °C for 1 hour in a CO2 gas incubator and the cells were stained. Supernatant was removed and the residue was washed once with saline. Then, the pigment was extracted with 0.001N hydrochloric acid/30% ethanol and the absorbance at 550 nm was measured with a microplatereader.
# [1] = system: estrogen dependent human mammary cancer MCF-7; test: Antitumor effects against estrogen dependent human mammary cancer MCF-7 transplanted subcutaneously in nude mice; format: in vivo, female BALB/C-nu/nu mice; details: orally, five days per week for four weeks, ratio of V/V0 of treated group to control group
# Method: Antitumor effects against estrogen dependent human mammary cancer MCF-7
# Tumor strips (2mm x 2 mm x 2mm) of human hormone dependent mammary cancer MCF-7 were transplanted subcutaneously in the ventral part of female BALB/C-nu/nu mice (Nihon Crea), 7-9 weeks age. For promoting the growth of tumor, 12.5 µg of estradiol was intramuscularlly administered three times in the femoral region on the date of transplantation and 7 and 14 days after transplantation. 7 Days after transplantation, mice the tumor volume of which increased to 10-100 mm^3 were selected, and test compounds were orally administered repeatedly for five days per a week, for four weeks, at five animals per group. Length and breadth of the tumor were determined, and the tumor volumes were calculated by means of ellipsoid approximation according to the following equation: (Tumor volume […]= {Length (mm) x [Breadth (mm)])^2 }/2 [formula]
# The tumor volume (V0) at initial administration was determined. The tumor volume (V) was determined after initiation to calculate V/V0 from which the ratio (T/C), that is, the ratio of V/V0 value of treated group relative to that of control group was obtained.
# Bacillus subtilis #10107 = test: Antibacterial activity, minimum inhibition concentration by agar dilution method; format: cell-based; details: agar dilution method at pH 7.0
# Method: Antibacterial activity of the compound (I) against Bacillus subtilis #10107 [Minimum Inhibition Concentration (MIC; µg/ml)] is shown in Table 2. Minimum Inhibition Concentration was determined by agar dilution method at pH 7.0.
# MCF-7 cells = test: Human mammary cancer (MCF-7) growth inhibition test, neutral red staining; format: cell-based; details: MCF7, medium with 10^-8M estradiol, 72 hours culture with sample
# Method: Human mammary cancer (MCF-7) growth inhibition test;
# Each 0.1 ml of MCF-7 cells which had been prepared to 5 x 10^4/ml using a medium (referred to as Medium B hereinafter) prepared by adding 10% bovine fetal serum, 10^-8M estradiol (manufactured by Sigma), 100 units/ml penicillin and 100 µg/ml streptomycin to medium RPMI1640 was distributed in each well of 96 well-microtiter plate. The plate was cultured at 37 °C for 20 hours in a CO2 gas incubator, each 0.05 ml of samples (test compounds) which had been appropriately diluted with Medium B was added thereto and the mixture was cultured at 37 °C for 72 hours in a CO2 gas incubator. Supernatant was removed, each 0.1 ml of Medium B containing 0.02% neutral red was added to the residue, the mixture was cultured at 37 °C for 1 hour in a CO2 gas incubator and the cells were stained. IC50 was calculated according to the same manner as that in Test 2.
SMILES,IC50 (HeLaS3 cells) [µM],"T/C ([1]; Dose 6.3 mg/kg, Date 22)",MIC (Bacillus subtilis #10107) [µg/mL],"T/C ([1]; Dose 25 mg/kg, Date 29)",IC50 (MCF-7 cells) [µM]
"Nc1ccc(-c2cc(=O)c3c(N)c(F)cc(F)c3o2)cc1 [Compound 12, 5-Amino-2-(4-aminophenyl)-6,8-difluoro-4H-1-benzopyran-4-one]",10,0.45,–,–,–
"NCCCNc1ccc(-c2cc(=O)c3c(N)c(F)cc(F)c3o2)cc1 [Compound 24, 5-Amino-2-[4-[(3-aminopropyl)amino]phenyl]-6,8-difluoro-4H-1-benzopyran-4-one]",3.4,–,2.6,–,–
"NCCCNc1ccc(-c2cc(=O)c3c(N)c(F)ccc3o2)cc1 [Compound 16, 5-Amino-2-[4-[(3-aminopropyl)amino]phenyl]-6-fluoro-4H-1-benzopyran-4-one]",5.8,–,5.2,–,–
"Nc1ccc(-c2cc(=O)c3c(N)c(F)cc(F)c3o2)cc1F [Compound 26, 5-Amino-2-(4-amino-3-fluorophenyl)-6,8-difluoro-4H-1-benzopyran-4-one]",26,–,–,0.45,–
"CCCCCCNc1c(F)cc(F)c2oc(-c3ccc(NCC(=O)OCC)c(F)c3)cc(=O)c12 [Compound 74, 6,8-Difluoro-2-(4-ethoxycarbonylmethylamino-3-fluorophenyl)-5-hexylamino-4H-1-benzopyran-4-one]",12,–,–,–,9.2
"NCCCNc1ccc(-c2cc(=O)c3c(N)ccc(F)c3o2)cc1 [Compound 20, 5-Amino-2-[4-[(3-aminopropyl)amino]phenyl]-8-fluoro-4H-1-benzopyran-4-one]",9.3,–,–,–,0.094
